# Read-outs that look alike come from different tables or passages of the source.
# Assays:
# [1] = system: ARPE-19 cells; assay: cells; type: cell-based; conditions: for concentration range providing improvement in cell viability / concentration at which high toxicity was observed (microscopy, loss of cell adherence): 24 h; for concentration range providing improvement in cell viability: compared to untreated cells (CTL); for concentration at which high toxicity was observed (microscopy, loss of cell adherence): ARPE-19, serum starvation medium (1% FBSM); for cell mortality: ARPE-19, serum starvation, 50 µM; for IC50: Homo sapiens, MTT, read-out: IC50 (concentration leading to 50% of cell viability)
# Protocol: ARPE-19 cells were obtained from ATCC, and maintained in Dulbecco’s Modified Eagle’s Medium (DMEM)/Ham F12 (GIBCO) containing 10% (v/v) fetal bovine serum (FBS) and 1% (v/v) penicillin/streptomycin under a humidified (95%)/CO2 (5%) atmosphere at 37 °C. For splitting and experiments, cells were dissociated with 0.25% trypsin-EDTA, re-suspended in the culture medium and then plated at 1–3 × 10^5 cells/mL. Cells were cultured and used up to a maximum of 10 passages.
# Cell viability was determined by the MTT colorimetric assay. Cells were incubated for 2 h with MTT reagent (0.5 mg/mL). The absorbance at 570 nm and 655 nm of individual wells was measured using a microplate reader (BioRad 550). The percentage of viable cells was calculated as [(OD570 sample – OD655 sample)/(OD570 control – OD655 control)] × 100%.
# ARPE-19 cells were plated into 96-well plates (3 × 10^4 cells/well) and cultured for 24 h to reach confluence before DHA treatment. The cells were treated in medium with 1% FBS (1% FBSM), or with H2O2 prepared in medium with FBS (1%, v/v) to a final concentration of 600 μM. Cells were then treated with DHA, D2-DHA and D4-DHA, at different concentrations (0–80 μm) for 24 h. Control cells were incubated with DMSO (0.2%). After 4 h, cell viability was determined in triplicate using the MTT colorimetric assay. Results were expressed in percentage of viable cells normalized with control conditions in the absence of PUFA and H2O2 stress.
# Sigmoidal doses-responses linked to the toxicity were obtained using GraphPad prism software, allowing to calculate IC50 values described as the concentration leading to 50% of cell viability.
# [2] = biological target: T1, 15-sLOX (Glycine max, UniProt P08170); assay: LC-MS/MS of 15s-LOX oxidized samples (product profile); type: biochemical, Glycine max (soybean); conditions: 0.1 mM substrate, 30 min reaction, room temperature
# T1 sequence (P08170 1-839): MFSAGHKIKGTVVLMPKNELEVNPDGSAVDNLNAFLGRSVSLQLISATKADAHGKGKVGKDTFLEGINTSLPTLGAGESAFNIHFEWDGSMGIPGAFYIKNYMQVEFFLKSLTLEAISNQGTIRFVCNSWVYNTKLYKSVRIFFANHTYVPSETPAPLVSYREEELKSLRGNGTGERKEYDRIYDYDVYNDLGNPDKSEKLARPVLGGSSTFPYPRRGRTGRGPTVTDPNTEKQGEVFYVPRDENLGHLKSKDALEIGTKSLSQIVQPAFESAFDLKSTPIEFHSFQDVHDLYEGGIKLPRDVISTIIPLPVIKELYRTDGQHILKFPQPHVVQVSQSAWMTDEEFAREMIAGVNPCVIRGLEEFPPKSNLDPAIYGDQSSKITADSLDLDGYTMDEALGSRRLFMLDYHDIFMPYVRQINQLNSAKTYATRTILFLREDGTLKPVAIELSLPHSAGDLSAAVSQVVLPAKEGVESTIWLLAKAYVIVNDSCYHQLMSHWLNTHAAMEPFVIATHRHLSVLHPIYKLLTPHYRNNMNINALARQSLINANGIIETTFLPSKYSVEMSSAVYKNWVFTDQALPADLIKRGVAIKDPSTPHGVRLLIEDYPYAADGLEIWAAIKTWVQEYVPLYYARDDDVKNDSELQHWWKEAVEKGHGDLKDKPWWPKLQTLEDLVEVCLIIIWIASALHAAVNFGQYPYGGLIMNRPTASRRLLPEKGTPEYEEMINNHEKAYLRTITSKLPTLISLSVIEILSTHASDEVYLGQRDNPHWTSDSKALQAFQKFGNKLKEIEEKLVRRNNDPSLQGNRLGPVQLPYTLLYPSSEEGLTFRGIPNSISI
# Protocol: In order to gain insights on the nature of the produced metabolites, LC-MS/MS analysis of the reaction products were carried out. To this end, the respective DHA variants (0.1 mM) were incubated in a 2 mL eppendorf tube with 10 µL 15-sLOX (4 mg/mL) in sodium borate buffer (50 mM, pH 9) for 30 min at room temperature and the reaction quenched by the addition of cold MeOH (760 µL). The hydroperoxides were reduced with the addition of aq. SnCl2 (50 µL, 5 mg/mL) and subsequently the mixture was centrifuged (16,100 ×g for 5 min). Water (2 mL) was added to the supernatant, followed by the dropwise addition of glacial acetic acid (40 µL). The products were purified by SPE using SepPak 200 mg C18 cartridges (3CC), according to published protocols. The methyl formate eluates were evaporated to dryness, dissolved in MeOH (0.5 mL) and stored at −80 °C until analysis. The resulting solution was diluted 1000 times with MeOH for LC-MS/MS measurements. To 120 µL water, 72 µL of MeOH, 4 µL of the diluted solution and 4 µL of an internal standard (15-HETE-d8, Leukotriene LTB4-d4 and DHA-d5) was added. The samples were loaded in a SIL-30AC autosampler and the analytes separated on a Kinetex 1.7 µm C18 100Å, 50 × 2.1 mm LC column as described. The detection of DHA metabolites was performed in selected ion monitoring mode using several traces in order to take the eventual loss of a deuterium atom into account. The following traces were used: m/z 327.2, 343.2, 359.2 and 375.2 for DHA and its metabolites, m/z 327.2, 328.2, 329.2, 344.2, 345.2, 360.2, 361.2, 376.2, 377.2 for D2-DHA, m/z 331.2, 345.3, 346.2, 361.2, 362.3, 363.2, 377.2, 378.2 and 379.2 for D4-DHA and m/z 337.2, 352.2, 353.2, 367.2, 368.2, 369.2, 383.2, 384.2 and 385.2 for D10-DHA. Tandem mass spectra were recorded as product ion scans. Quantification of the metabolites was done by calculating the area ratio between the analyte and the internal standard (DHA-d5 for non-hydroxylated, 15-HETE-d8 for mono-hydroxylated and LTB4-d4 for di-hydroxylated derivatives) using Multiquant version 3.0.2.
# [3] = ARPE-19, 24 h incubation, H2O2 (600 µM) 4 h
# [4] = ARPE-19, serum starvation (1% FBSM), 24 h incubation
SMILES,"concentration range providing improvement in cell viability ([1]; ARPE-19, 1% FBSM) [µM]","concentration at which high toxicity was observed (microscopy, loss of cell adherence) [1] [µM]",cell mortality [1],"IC50 [1, 3] [µM]","IC50 [1, 4] [µM]",pre-dominant product of 15-sLOX oxidation (LC-MS) [2],"cell survival ([1]; ARPE-19, 1% FBSM, 70 µM) [%]"
"[2H]C([2H])(/C=C\C/C=C\C/C=C\C/C=C\C/C=C\CC)/C=C\CCC(=O)O [D2-DHA, (6,6-D2)-DHA]",0 to 65,65 to 70,did not induced cell mortality,67 ± 1.89,69.5 ± 1.46,"double oxygenation product 10S,17S-diHDHA",–
"[2H]C([2H])(C=CCC=CCC=CCC=CCC)C=CC([2H])([2H])C=CCCC(=O)O [D4-DHA, (6,6,9,9-D4)-DHA]",0 to 70,70 to 75,did not induced cell mortality,76.2 ± 2.26,75.6 ± 1.05,"double oxygenation product 10S,17S-diHDHA",125
"CC/C=C\C/C=C\C/C=C\C/C=C\C/C=C\C/C=C\CCC(=O)O [Natural DHA, docosahexaenoic acid, reference compound]",0 to 60,60 to 65,did not induced cell mortality,65.5 ± 1.87,65.2 ± 1.03,"double oxygenation product 10S,17S-diHDHA",–

# Source: PMC6826779, “Bis-allylic Deuterated DHA Alleviates Oxidative Stress in Retinal Epithelial Cells” (Antioxidants, 2019)
